What was measured:
[1] = target: T1, Paired box protein Pax-2 [1-81] (Human, UniProt Q02962); assay: Biolayer Interferometry Binding Assay
T1 construct: 1-81
Protocol: (§1) After biotinylation, the protein was bound to saturation to the biosensor of an Octet RED Multichannel platform (ForteBio). All binding and equilibration was done in PBS with 0.1% DMSO. For binding to the compound, sensors were incubated for 300s in EG1 at the following concentrations: 0.5, 1, 2, 4, 8, 16, 31, 62, 125, and 250 μM. Disassociation was then measured for 350 s in PBS to determine affinity constants. Kd is calculated from Kon and Koff.

[2] = target: T1, Paired box protein Pax-2 [1-81]; assay: Biolayer Interferometry Binding Assay; remark: listed apart in the source
Protocol: as §1, with “steady state analysis.” for “Kon and Koff.”

T1 sequence (Q02962 1-81): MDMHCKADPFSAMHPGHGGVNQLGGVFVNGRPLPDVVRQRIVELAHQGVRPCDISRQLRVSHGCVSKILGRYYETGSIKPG

Question: `COc1ccccc1C(=O)Nc1ccc(C(=O)Nc2ccccc2C(=O)O)cc1` [EG1] was tested. Which Kd [1] did it give?
Answer: Its Kd is 1350 nM.

Question: What about the Kd [2] of the same compound?
Answer: The Kd was 1500 nM.

Reference: BindingDB's records for doi:10.1021/acschembio.6b00782 (University of Michigan, 2017)
